From paper PMC6263107 (Journal of Enzyme Inhibition and Medicinal Chemistry, 2018)
Values joined by “and” are separate entries in the source; they are usually repeats but may differ in a detail not shown here. Equal entries are not always repeated. Where two headings read alike, the source gives them in different places.

Experiments:
[1] = molecular target: T1, eqBuChE (Equus caballus, UniProt P81908); assay: biochemical; settings: for IC50: mean ± SEM; for inhibition at 10 µM: Table 2 footnote b
T1 construct: serum horse BuChE (eqBuChE); from tissue; host or cells: horse serum
Description: (§1) Ellman’s protocol was followed to perform the anticholinesterasic activity. Briefly, the reaction was carried out in a final volume of 3 ml of a phosphate-buffered solution (0.1 M) at pH =8.0 containing (2.625 µl, 0.35 mM) of 5,5’-dithiobis-2-nitrobenzoic acid (DTNB), 40 µl 1% w/v Bovine Albumin Serum phosphate-buffered solution (BSA), (29 µl, 0.035 U/ml) of EeAChE or (60 µl, 0.05 U/ml) of eqBuChE, and 3 µl of tested compound, which were incubated for 10 min. Then, the acetylthiocholine iodide or butyrylthiocholine was added, and the reaction was incubated for additional 15 min. The activity in absence of compound was used as control.

[2] = molecular target: EeAChE (Electrophorus electricus, UniProt O42275); assay: biochemical; settings: mean ± SEM
Description: as §1

[3] = in vitro; format: cell-based; settings: human
Description: (§2) The culture medium was refreshed after 24 h of incubation and 100 µl of six different concentrations (1–1000 µM) of test compounds or DMSO (0.1%) were then added. The cell viability was monitored by colourimetric assay with 3-[4,5-dimethylthiazol-2-yl]-2,5-diphenyl-tetrazolium bromide (MTT).
(§3) In this sense, all new KTs were submitted to the in vitro cell viability test (MTT assay) using human hepatocellular carcinoma cell line (HepG2)[26], as the most accepted probe to evaluate hepatotoxic effects. For this experiment, six different concentrations from 1 to 1000 µM were used.

[4] = Oxygen radical absorbance capacity assay (ORAC-FL); settings: ORAC-FL, Trolox equivalents
Description: The antioxidant activity of KTs was determined using the ORAC-FL method described by Dávalos et al.[30] using fluorescein as a fluorescent probe with minor modification. Briefly, fluorescein and antioxidant were incubated in a black 96-well microplate (Nunc) for 15 min at 37 °C. The 2,2’-azobis(amidinopropane) dihydrochloride (AAPH) was then added quickly using the built-in injector of Varioskan Flash plate reader (Thermo Scientific).
Results are expressed in the Trolox equivalents (TE) unit in relation to radical scavenging properties of Trolox.

[5] = molecular target: T2, hAChE (Homo sapiens, UniProt P22303); assay: biochemical
T2 construct: 10 µl of cholinesterase obtained from human erythrocyte hemolyzate, out of blood samples; from tissue; host or cells: human erythrocyte hemolysate from blood samples
Description: This blend was preincubated for 5 min and 20 µl of 0.01 M substrate (ATCh or BTCh) was added to initiate the reaction. […] The IC50 values are expressed as a mean ± SEM.
Next, as planned at the beginning of the project, the analysis of the antioxidant capacity of KT 2a–d, 2f–h, and 2l was carried out.

[6] = test system: SH-SY5Y cells; set-up: method as in PMID 27736061; settings: O 10 µM / R 30 µM, cited from earlier work
[7] = test system: SH-SY5Y cells; set-up: method as in PMID 27736061; settings: Aβ 1–40 30 µM, cited from earlier work
[8] = test system: SH-SY5Y cells; assay: Neuroprotection against Aβ1–40 peptide-induced cell death (MTT); format: cell-based, human; settings: for Aβ1–40 (%) neuroprotection: Aβ 1–40 30 µM
Description: (§4) SH-SY5Y cell culture and treatment with compounds 2b–d and 2f. The cultures of human SH-SY5Y neuroblastoma cells kept under a CO2/air (5%/95%) humidified atmosphere at 37 °C for 24 h were treated with 100 µl of the test compounds or DMSO (0.1%) in DMEM/F12 (1:1) medium supplemented with 1% fetal bovine serum, 1X non-essential amino acids, 100 units/ml penicillin and 10 mg/ml streptomycin. Treatment medium was renewed every day for up to 48 h of treatment. MTT assay was then performed.
(§5) SH-SY5Y cells were seeded in 96-well culture plates at a density of 8 × 10^4 cells per well in DMEM/F12 (1:1) medium supplemented with 10% fetal bovine serum, 1X non-essential amino acids, 100 units/mL penicillin and 10 mg/mL streptomycin (Dutscher, France). After 24 h of incubation, the cultures were treated with 100 µl of the test compounds or DMSO (0.1%) in the same medium. Following 24 h, the cells were co-incubated with oligomycin A (10 µM)/rotenone (30 µM) (Sigma, France) or Aβ 1–40 (30 µM) with or without the tested compounds 2b–d and 2f at nontoxic concentrations against cells for an additional period of 24 h. MTT assay was then performed to determine the % of cell viability.
(§6) The ability to prevent the human neuroblastoma cell line SH-SY5Y cell death induced by toxic insults such as Αβ 1–40, implicated in ROS production and apoptosis-related signalling pathways, and oligomycin/rotenone (O/R)[39], was then assayed to determine the neuroprotective capacity of the four less hepatotoxic KTs 2b–d and 2f at nontoxic concentration against SH-SY5Y 3 and 10 µM, using melatonin and KA as reference molecules. For the evaluation of the neuroprotective effect, the cytotoxicity of O/R (10 µM/30 µM) on SH-SY5Y cell viability was determined as well as the toxicity of the selected KTs 2b–d and 2f at.

[9] = test system: SH-SY5Y cells; assay: Neuroprotection against oligomycin/rotenone-induced cell death (MTT); format: cell-based, human; settings: O 10 µM / R 30 µM
Description: as §4, §5, §6

[10] = test system: HepG2 cells; assay: in vitro; format: cell-based; settings: concentrations up to 1000 µM
Description: as §2, §3

[11] = HepG2 cells, 1 µM, percent of cell viability vs DMSO-treated control, read-out: HepG2 cell viability
[12] = HepG2 cells, 3 µM, percent of cell viability vs DMSO-treated control, read-out: HepG2 cell viability
[13] = HepG2 cells, 10 µM, percent of cell viability vs DMSO-treated control, read-out: HepG2 cell viability
[14] = HepG2 cells, 30 µM, percent of cell viability vs DMSO-treated control, read-out: HepG2 cell viability
[15] = HepG2 cells, 100 µM, percent of cell viability vs DMSO-treated control, read-out: HepG2 cell viability
[16] = HepG2 cells, 300 µM, percent of cell viability vs DMSO-treated control, read-out: HepG2 cell viability
[17] = HepG2 cells, 1000 µM, percent of cell viability vs DMSO-treated control, read-out: HepG2 cell viability

Sequence of EeAChE (O42275 24-633): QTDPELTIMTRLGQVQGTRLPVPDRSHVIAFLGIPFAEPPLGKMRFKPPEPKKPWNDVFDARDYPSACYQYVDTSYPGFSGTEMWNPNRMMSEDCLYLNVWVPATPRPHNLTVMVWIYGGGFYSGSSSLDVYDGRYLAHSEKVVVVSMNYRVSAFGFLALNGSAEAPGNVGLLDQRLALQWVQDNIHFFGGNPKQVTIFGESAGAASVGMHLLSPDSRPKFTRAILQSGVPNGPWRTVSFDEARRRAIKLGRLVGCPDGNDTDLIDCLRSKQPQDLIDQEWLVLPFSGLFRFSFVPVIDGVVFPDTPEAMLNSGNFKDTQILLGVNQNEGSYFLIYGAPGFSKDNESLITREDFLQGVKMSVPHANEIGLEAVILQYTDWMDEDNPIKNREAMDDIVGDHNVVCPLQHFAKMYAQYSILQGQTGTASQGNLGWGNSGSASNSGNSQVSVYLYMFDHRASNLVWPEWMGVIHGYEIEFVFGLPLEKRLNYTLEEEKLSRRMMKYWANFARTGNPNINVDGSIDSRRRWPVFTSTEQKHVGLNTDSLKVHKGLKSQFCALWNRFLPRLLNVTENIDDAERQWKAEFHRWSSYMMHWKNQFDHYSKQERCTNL
T2 sequence (P22303 32-617 isoform P22303-2 limits assumed): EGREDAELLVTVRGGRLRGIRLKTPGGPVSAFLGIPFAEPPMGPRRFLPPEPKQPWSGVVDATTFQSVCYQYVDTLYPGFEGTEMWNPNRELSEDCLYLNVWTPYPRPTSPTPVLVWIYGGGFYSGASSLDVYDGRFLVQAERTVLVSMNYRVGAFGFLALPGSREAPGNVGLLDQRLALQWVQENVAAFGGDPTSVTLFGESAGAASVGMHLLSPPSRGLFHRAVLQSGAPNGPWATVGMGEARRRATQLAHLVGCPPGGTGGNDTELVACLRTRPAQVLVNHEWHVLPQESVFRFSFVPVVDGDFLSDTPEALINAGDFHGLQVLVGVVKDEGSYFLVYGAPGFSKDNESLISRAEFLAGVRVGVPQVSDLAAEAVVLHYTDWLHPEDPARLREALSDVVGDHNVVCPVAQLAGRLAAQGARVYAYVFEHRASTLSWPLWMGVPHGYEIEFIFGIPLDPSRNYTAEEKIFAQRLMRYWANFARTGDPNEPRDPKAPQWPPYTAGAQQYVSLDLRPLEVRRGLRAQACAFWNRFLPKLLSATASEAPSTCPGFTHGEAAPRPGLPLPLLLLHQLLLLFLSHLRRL
T1 sequence (P81908 whole entry): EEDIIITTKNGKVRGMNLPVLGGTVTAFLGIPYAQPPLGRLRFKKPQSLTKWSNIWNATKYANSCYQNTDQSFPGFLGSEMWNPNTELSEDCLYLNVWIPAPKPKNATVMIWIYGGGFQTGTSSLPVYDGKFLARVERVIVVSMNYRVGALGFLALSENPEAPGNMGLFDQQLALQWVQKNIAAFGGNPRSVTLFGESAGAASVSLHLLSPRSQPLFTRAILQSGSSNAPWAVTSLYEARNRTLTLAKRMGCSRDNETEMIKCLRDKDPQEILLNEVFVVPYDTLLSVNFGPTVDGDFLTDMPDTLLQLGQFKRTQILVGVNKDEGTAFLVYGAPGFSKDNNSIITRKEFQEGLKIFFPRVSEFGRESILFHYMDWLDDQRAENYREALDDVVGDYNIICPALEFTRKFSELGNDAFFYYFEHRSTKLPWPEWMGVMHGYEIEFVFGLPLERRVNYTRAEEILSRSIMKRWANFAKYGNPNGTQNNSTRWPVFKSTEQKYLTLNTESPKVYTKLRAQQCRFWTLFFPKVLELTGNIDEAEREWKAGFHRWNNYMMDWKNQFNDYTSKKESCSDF

Compound | IC50 [1] | IC50 [2] | viability at 1 µM [3, 11] | viability at 3 µM [3, 12] | viability at 10 µM [3, 13] | viability at 30 µM [3, 14] | viability at 100 µM [3, 15] | viability at 300 µM [3, 16] | viability at 1000 µM [3, 17] | ORAC [4] | other results
Nc1c2c(nc3c1C(c1cccc(F)c1)c1oc(CO)cc(=O)c1O3)CCCC2 (stereo not drawn) [KT2g] | 4.54 ± 0.2 µM | 2.14 ± 0.12 µM | 101 ± 7.1% | 96.5 ± 7.4% | 99.1 ± 3.8% | 109 ± 6.1% | 103 ± 6.4% | 90.5 ± 9.6% | 62.6 ± 9.7% | 4.34±0.17 TE | –
COc1ccc(C2c3oc(CO)cc(=O)c3Oc3nc4c(c(N)c32)CCCC4)cc1 (stereo not drawn) [KT2e] | 7.57 ± 0.13 µM | 1.14 ± 0.02 µM | 95.5 ± 5.5% | 96.1 ± 7.1% | 95.9 ± 5.6% | 98.3 ± 3.8% | 86.1 ± 3.8% | 70.9 ± 4.5% | 41.7 ± 3% | 4.46±0.27 TE | –
Nc1c2c(nc3c1C(c1ccccc1)c1oc(CO)cc(=O)c1O3)CCCC2 (stereo not drawn) [KT2a] | 12.15 ± 0.09 µM | 3.3 ± 0.09 µM | 96.8 ± 1% | 94.9 ± 2.9% | 99.3 ± 1.7% | 105 ± 5.3% | 108 ± 5% | 95 ± 3.4% | 50.3 ± 5.7% | 2.58±0.22 TE and 2.58 TE | inhibition at 10 µM ([5]; at 10 μM, Table 2 footnote b): < 50%
Nc1c2c(nc3c1C(c1ccc(F)cc1)c1oc(CO)cc(=O)c1O3)CCCC2 (stereo not drawn) [KT2h] | – | 3.44 ± 0.04 µM | 97.4 ± 2.3% | 95.9 ± 3.8% | 100 ± 1.5% | 101.4 ± 0.6% | 102 ± 1.8% | 87.2 ± 6.7% | 55.3 ± 6% | 4.69±0.18 TE | inhibition at 10 µM [1]: < 50%
Nc1c2c(nc3c1C(c1ccccc1Cl)c1oc(CO)cc(=O)c1O3)CCCC2 (stereo not drawn) [KT2i] | 8.54 ± 0.12 µM | 0.76 ± 0.09 µM | 98.6 ± 1.4% | 100 ± 1.9% | 99.4 ± 1.2% | 105 ± 2.6% | 95.2 ± 4.7% | 64.4 ± 6.3% | 23.1 ± 6% | 4.84±0.06 TE | –
Nc1c2c(nc3c1C(c1cccc(Br)c1)c1oc(CO)cc(=O)c1O3)CCCC2 (stereo not drawn) [KT2k] | 3.9 ± 0.09 µM | 0.74 ± 0.08 µM | 101 ± 4.8% | 104 ± 8.9% | 94.9 ± 2.6% | 95.8 ± 2.5% | 101 ± 3.1% | 60.1 ± 10.4% | 37.2 ± 5.9% | 2.61±0.11 TE | –
COc1ccc2[nH]cc(CCNC(C)=O)c2c1 [Melatonin, melatonin] | – | – | – | – | – | – | – | – | – | – | O/R (%) neuroprotection ([6]; compound 1 µM): 50.1 ± 3.42 %; O/R (%) neuroprotection ([6]; compound 3 µM): 59.1 ± 4.50 %; Aβ1–40 (%) neuroprotection ([7]; compound 1 µM): 35.5 ± 4.1 %; Aβ1–40 (%) neuroprotection ([7]; compound 3 µM): 60.2 ± 3.57 %
Nc1c2c(nc3ccccc13)CCCC2 [Tacrine, tacrine, reference compound] | – | – | – | – | – | – | – | – | – | 0.2 ± 0.1 TE | viability at 1 µM [3]: 112 ± 4%; viability at 3 µM [3]: 114 ± 4.8%; viability at 10 µM [3]: 108 ± 3.4%; viability at 30 µM [3]: 110 ± 4.2%; viability at 100 µM [3]: 102 ± 2.4%; viability at 300 µM [3]: 42.4 ± 2%; viability at 1000 µM [3]: 10.9 ± 2%
COc1cc(/C=C/C(=O)O)ccc1O [FA, ferulic acid, reference compound] | – | – | – | – | – | – | – | – | – | 3.74±0.22 TE and 3.74 TE | –
Nc1c2c(nc3c1C(c1ccccc1F)c1oc(CO)cc(=O)c1O3)CCCC2 (stereo not drawn) [KT2f] | 6.69 ± 0.1 µM | 2.11 ± 0.01 µM | 108 ± 6.2% | 96.1 ± 2.5% | 99.2 ± 2.8% | 102 ± 7.1% | 101 ± 9.2% | 95.3 ± 4.1% | 64 ± 8% | 3.85±0.42 TE | inhibition at 10 µM ([5]; at 10 μM, Table 2 footnote b): < 50%; Aβ1–40 (%) neuroprotection ([8]; compound 3 µM): 25.10 ± 0.06 %; Aβ1–40 (%) neuroprotection ([8]; compound 10 µM): 4.1 ± 0.04%; O/R (%) neuroprotection ([9]; compound 3 µM): 16.50 ± 0.07%; O/R (%) neuroprotection ([9]; compound 10 µM): np
Nc1c2c(nc3c1C(c1cccc(Cl)c1)c1oc(CO)cc(=O)c1O3)CCCC2 (stereo not drawn) [KT2j] | 4.19 ± 0.11 µM | 0.82 ± 0.05 µM | 97.6 ± 2% | 101 ± 5.4% | 105 ± 5.5% | 99.6 ± 2.4% | 102 ± 6.9% | 52.7 ± 8.3% | 14.5 ± 6.4% | 4.67±0.31 TE | –
Cc1ccc(C2c3oc(CO)cc(=O)c3Oc3nc4c(c(N)c32)CCCC4)cc1 (stereo not drawn) [KT2b] | 10.09 ± 0.09 µM | 1.4 µM | 105 ± 3.1% | 110 ± 3.2% | 105 ± 1.9% | 107 ± 2.9% | 113 ± 8.4% | 108 ± 5.7% | 87.9 ± 5.2% | 2.96±0.18 TE | IC50 ([5]; mean ± SEM): 13.7 ± 1.7 µM; Aβ1–40 (%) neuroprotection ([8]; compound 3 µM): 27.85 ± 0.15 %; Aβ1–40 (%) neuroprotection ([8]; compound 10 µM): np; neuroprotective activity ([8]; on any of the toxic insults investigated (O/R, Aβ 1–40)): very poor neuroprotective activity; O/R (%) neuroprotection ([9]; compound 3 µM): 19.66 ± 0.07%; O/R (%) neuroprotection ([9]; compound 10 µM): 3.65 ± 0.07%; HepG2 toxicity [10]: no significant toxicity
Nc1c2c(nc3c1C(c1c(Cl)cccc1Cl)c1oc(CO)cc(=O)c1O3)CCCC2 (stereo not drawn) [KT2l] | – | 2.12 ± 0.09 µM | 99.9 ± 2.7% | 102 ± 2.3% | 102 ± 2.6% | 99.9 ± 3.2% | 88.9 ± 8% | 68.3 ± 9.3% | 50.5 ± 7.5% | 6.14±0.40 TE and 6.14 TE | inhibition at 10 µM [1]: < 50%
COc1ccccc1C1c2oc(CO)cc(=O)c2Oc2nc3c(c(N)c21)CCCC3 (stereo not drawn) [KT2c] | – | 2.39 ± 0.02 µM | 94.7 ± 2.4% | 103 ± 2.8% | 99 ± 1.1% | 98.2 ± 2.2% | 96.1 ± 1.5% | 88.5 ± 7.1% | 70.7 ± 7.7% | 6.05±0.41 TE and 6.05 TE | inhibition at 10 µM ([5]; at 10µM, Table 1S footnote c): < 50%; inhibition at 10 µM [1]: < 50%; Aβ1–40 (%) neuroprotection ([8]; compound 3 µM): np; Aβ1–40 (%) neuroprotection ([8]; compound 10 µM): np; O/R (%) neuroprotection ([9]; compound 3 µM): 12.18 ± 0.08%; O/R (%) neuroprotection ([9]; compound 10 µM): 16.56 ± 0.02%
